Measurements from ChEMBL document CHEMBL1201862, “PubChem BioAssay data set” (2004).
Active and inactive are the calls of the source.

Legend:
[1] = bead-based luminescence quenchers, dual-tagged ARNT – biochemical, AlphaScreen, cherry-pick, artefact control for ARNT-TACC3 interaction inhibitor project, dose response (AID 651705); format: functional;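 further: AlphaScreen bead proximity signal that flags compounds interfering with the detection technology; potency reflects signal decrease which marks the compound as an assay artifact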
Cytochrome P450 2C19 = Cytochrome P450 2C19 (Homo sapiens, UniProt P33261); assay: Cytochrome panel assay with activity outcomes. Panel member name: p450-cyp2c19 Compounds with AC50 equal or less than 10 uM are considered active; format: functional; details: read-out: AC50
Chain of Cytochrome P450 2C19 (P33261 whole entry, the tested form may be a part): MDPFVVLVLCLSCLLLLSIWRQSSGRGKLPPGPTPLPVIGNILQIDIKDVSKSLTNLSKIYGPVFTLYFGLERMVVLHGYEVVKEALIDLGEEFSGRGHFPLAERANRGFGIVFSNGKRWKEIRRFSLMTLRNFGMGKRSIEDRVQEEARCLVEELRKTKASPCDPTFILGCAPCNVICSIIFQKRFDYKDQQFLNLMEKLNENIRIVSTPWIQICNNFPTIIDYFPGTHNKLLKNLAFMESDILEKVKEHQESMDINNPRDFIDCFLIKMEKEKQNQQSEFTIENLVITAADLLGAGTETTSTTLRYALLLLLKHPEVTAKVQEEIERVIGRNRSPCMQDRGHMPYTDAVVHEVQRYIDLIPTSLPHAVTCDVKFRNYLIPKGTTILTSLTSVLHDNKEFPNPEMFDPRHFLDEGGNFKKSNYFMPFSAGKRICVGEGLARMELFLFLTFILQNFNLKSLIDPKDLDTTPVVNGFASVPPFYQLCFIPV

[2] = inhibition of ARNT PAS-B/TACC3 complex formation – biochemical, AlphaScreen, cherry-picked samples, confirmation (AID 651703); format: functional, Homo sapiens;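 further: His-tagged ARNT PAS-B domain paired with GST-TACC3 E629A dimer coactivator fragment; potency of inhibitors that break up the complex and lower AlphaScreen signal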
Cytochrome P450 2D6 = Cytochrome P450 2D6 (Homo sapiens, UniProt P10635);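 further: CYP2D6 member of a cytochrome P450 panel assay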
Chain of Cytochrome P450 2D6 (P10635 whole entry): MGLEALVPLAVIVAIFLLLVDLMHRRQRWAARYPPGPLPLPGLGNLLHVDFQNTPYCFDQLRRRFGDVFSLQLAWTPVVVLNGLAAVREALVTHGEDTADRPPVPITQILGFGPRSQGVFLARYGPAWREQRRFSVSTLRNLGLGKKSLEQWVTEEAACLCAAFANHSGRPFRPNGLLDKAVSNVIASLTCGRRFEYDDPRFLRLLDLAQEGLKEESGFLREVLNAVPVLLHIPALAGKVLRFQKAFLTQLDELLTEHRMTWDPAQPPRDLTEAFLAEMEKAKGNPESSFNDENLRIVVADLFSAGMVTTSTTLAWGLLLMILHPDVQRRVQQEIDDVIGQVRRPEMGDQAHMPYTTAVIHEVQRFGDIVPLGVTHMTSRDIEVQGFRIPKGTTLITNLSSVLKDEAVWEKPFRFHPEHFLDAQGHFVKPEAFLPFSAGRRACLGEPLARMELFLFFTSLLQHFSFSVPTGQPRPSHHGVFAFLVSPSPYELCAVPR

Cytochrome P450 2C9 = Cytochrome P450 2C9 (Homo sapiens, UniProt P11712)
Chain of Cytochrome P450 2C9 (P11712 whole entry): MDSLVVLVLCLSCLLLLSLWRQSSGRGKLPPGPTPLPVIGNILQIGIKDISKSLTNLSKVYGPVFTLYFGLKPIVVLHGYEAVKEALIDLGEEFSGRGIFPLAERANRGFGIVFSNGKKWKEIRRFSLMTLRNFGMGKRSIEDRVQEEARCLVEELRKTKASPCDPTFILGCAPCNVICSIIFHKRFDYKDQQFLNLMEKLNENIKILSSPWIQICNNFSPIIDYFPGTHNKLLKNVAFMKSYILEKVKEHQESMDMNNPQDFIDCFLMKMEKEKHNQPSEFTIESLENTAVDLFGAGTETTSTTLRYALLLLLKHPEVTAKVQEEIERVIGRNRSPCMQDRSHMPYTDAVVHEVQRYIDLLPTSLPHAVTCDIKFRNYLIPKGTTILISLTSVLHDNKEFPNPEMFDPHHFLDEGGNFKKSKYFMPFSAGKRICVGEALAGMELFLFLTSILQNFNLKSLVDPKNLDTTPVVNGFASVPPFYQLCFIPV

[3] = target: Luciferin 4-monooxygenase (Photinus pyralis, UniProt P08659); assay: Counter Screen for Luciferase-based Assay Positives. [Related pubchem assays: 620, 618, 411 ]
Chain of Luciferin 4-monooxygenase (P08659 whole entry): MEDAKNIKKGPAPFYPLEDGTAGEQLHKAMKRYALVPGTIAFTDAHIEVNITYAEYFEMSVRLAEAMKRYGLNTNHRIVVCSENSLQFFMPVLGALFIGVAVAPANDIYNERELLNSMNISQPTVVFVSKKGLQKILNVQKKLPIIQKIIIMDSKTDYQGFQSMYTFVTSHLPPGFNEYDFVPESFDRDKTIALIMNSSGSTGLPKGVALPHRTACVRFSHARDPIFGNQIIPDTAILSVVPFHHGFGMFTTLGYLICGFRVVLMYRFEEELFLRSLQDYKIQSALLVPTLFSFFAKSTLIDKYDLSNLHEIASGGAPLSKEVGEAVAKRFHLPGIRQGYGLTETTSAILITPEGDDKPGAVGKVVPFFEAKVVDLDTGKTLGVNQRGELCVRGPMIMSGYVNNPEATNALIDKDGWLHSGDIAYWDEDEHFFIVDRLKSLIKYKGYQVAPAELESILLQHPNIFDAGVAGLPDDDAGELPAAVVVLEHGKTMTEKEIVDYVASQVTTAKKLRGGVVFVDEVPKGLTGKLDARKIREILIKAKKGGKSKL

HT-1080 = assay: HT1080 cell viability loss – fluorescence readout (AID 620); format: functional, cell-based; details: Homo sapiens
Melanocortin receptor 4 = Melanocortin receptor 4 (Homo sapiens, UniProt P32245); assay: inhibitors of MC4R cAMP signaling – cell-based, TR-FRET, biased antagonists, dose response (AID 602298); format: functional;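 further: antagonist potency against agonist-stimulated cAMP production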
Chain of Melanocortin receptor 4 (P32245 whole entry): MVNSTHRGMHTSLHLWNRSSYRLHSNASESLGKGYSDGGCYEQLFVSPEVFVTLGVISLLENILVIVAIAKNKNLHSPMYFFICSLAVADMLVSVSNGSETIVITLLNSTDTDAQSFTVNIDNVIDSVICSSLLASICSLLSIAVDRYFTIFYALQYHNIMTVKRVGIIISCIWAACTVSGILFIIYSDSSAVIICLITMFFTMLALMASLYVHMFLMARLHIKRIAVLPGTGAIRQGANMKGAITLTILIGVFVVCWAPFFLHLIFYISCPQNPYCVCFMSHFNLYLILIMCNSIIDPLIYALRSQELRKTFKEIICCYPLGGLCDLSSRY

[4] = cAMP pathway inhibition in counterscreen cell line – TR-FRET cAMP detection, counter-screen for MC4R biased antagonist project, dose response (AID 602305); format: functional, cell-based;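 further: U2OS cells stimulated with forskolin near its EC80 as the cAMP inducer; potency is for inhibition of forskolin-stimulated cAMP signaling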
[5] = viability of uninfected HEp-2 cells – cell-based, HTS, cytotoxicity control for RSV inhibitor project, dose response (AID 2410); format: functional; details: human respiratory syncytial virus
[6] = system: Streptococcus sp. 'group A'; assay: Streptococcus pyogenes SK(-)GAS viability under kanamycin – luminescence, BacTiterGlo, confirmation, counter-screen for streptokinase expression inhibitor project, dose response (AID 1900); format: functional, organism-based
Streptokinase A = target: T1, Streptokinase A (Streptococcus pyogenes serotype M1, UniProt P10520); assay: viability-normalized secreted streptokinase activity reduction – plasminogen activation absorbance, OD405, dose response (AID 1914); format: functional, Streptococcus pyogenes M1 GAS;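 further: secreted streptokinase activity via plasminogen activation per viability signal from cell pellet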
T1 sequence (P10520 whole entry): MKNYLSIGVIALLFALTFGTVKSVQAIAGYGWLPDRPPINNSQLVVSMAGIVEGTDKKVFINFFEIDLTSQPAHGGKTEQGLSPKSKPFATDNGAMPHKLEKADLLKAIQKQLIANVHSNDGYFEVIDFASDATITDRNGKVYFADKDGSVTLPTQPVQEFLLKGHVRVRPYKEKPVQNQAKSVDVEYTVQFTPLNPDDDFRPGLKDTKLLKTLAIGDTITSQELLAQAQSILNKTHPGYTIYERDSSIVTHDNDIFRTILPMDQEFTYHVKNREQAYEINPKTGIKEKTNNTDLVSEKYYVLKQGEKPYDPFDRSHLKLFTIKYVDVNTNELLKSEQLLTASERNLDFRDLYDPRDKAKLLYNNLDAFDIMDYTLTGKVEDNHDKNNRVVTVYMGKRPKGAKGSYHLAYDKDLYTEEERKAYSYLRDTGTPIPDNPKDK

[7] = Trypanosoma cruzi growth suppression in host cells – NIH3T3 host cells, beta-gal luminescence, confirmation (AID 2044); format: functional, cell-based;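 further: intracellular parasites grown in NIH/3T3 mouse fibroblasts as host cells; luminescent beta-galactosidase reporter signal from transgenic T. cruzi replicating inside host cells; inhibitors lower the luminescence signal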
[8] = NIH3T3 cell viability loss – ATP luminescence, mouse fibroblasts, counter-screen, dose response (AID 2010); format: functional, cell-based;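 further: cells exposed to compound for about 90 hours before reading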
Streptococcus = assay: GAS UMAA2166 growth inhibition – luminescence, BacTiterGlo, counter-screen for streptokinase expression inhibitor project, dose response (AID 1915); format: functional, organism-based;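 further: potency for reduction of bacterial viability or growth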
[9] = Luminescence Cell-Based Dose Retest to Confirm Inhibitors of Cancer Stem Cells. [Related pubchem assays (depositor defined):AID2717, AID2721]; format: functional; details: Homo sapiens
[10] = target: T2, Short transient receptor potential channel 4 (Mus musculus, UniProt Q9QUQ5); assay: calcium entry via TRPC4 opening agents – cell-based, HEK293 TRPC4/mu-opioid, Fluo-4 calcium, dose response (AID 434937); format: functional
T2 sequence (Q9QUQ5 whole entry): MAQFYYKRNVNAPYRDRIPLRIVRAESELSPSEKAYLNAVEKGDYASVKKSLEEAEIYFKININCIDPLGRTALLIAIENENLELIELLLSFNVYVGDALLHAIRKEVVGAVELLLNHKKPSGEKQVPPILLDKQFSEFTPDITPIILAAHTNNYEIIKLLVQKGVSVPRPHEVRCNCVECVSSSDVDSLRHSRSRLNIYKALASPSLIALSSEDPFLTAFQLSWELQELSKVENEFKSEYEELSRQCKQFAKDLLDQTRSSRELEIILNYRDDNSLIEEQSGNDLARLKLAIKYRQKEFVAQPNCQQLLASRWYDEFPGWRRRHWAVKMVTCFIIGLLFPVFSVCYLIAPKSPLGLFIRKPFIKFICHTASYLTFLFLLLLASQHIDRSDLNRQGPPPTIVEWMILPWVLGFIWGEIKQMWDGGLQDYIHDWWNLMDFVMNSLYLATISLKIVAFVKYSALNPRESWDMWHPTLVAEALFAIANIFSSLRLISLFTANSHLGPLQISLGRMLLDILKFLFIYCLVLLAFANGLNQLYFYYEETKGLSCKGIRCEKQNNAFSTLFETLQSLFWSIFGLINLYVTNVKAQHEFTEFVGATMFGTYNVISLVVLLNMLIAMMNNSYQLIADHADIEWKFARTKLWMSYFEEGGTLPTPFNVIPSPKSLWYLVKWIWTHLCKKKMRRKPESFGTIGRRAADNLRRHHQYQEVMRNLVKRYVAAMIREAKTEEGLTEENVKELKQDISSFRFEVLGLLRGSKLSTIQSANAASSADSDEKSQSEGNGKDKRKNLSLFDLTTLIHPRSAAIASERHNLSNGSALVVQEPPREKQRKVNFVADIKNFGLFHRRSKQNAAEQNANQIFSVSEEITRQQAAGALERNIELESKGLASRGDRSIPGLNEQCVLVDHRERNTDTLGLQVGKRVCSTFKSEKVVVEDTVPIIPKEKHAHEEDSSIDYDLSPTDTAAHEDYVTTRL

[11] = target: T3, Low molecular weight phosphotyrosine protein phosphatase (Homo sapiens, UniProt P24666); format: functional; details: read-out: IC50_Mean;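 further: Dose-response confirmation assay measuring inhibition of LMPTP enzyme activity by fluorescence intensity read-out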
T3 sequence (P24666 whole entry): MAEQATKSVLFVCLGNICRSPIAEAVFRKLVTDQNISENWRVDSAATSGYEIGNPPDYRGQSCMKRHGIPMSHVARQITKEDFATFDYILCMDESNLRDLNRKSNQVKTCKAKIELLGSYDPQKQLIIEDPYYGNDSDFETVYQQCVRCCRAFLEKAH

[12] = target: T4, Tyrosine-protein phosphatase non-receptor type 22 (Homo sapiens, UniProt Q9Y2R2); assay: PTPN22 enzyme inhibitors – biochemical, fluorescence, LYP catalytic domain, selectivity assay for LMPTP inhibitor project, dose response (AID 652006); format: functional; details: read-out: IC50_Mean
T4 sequence (Q9Y2R2 whole entry): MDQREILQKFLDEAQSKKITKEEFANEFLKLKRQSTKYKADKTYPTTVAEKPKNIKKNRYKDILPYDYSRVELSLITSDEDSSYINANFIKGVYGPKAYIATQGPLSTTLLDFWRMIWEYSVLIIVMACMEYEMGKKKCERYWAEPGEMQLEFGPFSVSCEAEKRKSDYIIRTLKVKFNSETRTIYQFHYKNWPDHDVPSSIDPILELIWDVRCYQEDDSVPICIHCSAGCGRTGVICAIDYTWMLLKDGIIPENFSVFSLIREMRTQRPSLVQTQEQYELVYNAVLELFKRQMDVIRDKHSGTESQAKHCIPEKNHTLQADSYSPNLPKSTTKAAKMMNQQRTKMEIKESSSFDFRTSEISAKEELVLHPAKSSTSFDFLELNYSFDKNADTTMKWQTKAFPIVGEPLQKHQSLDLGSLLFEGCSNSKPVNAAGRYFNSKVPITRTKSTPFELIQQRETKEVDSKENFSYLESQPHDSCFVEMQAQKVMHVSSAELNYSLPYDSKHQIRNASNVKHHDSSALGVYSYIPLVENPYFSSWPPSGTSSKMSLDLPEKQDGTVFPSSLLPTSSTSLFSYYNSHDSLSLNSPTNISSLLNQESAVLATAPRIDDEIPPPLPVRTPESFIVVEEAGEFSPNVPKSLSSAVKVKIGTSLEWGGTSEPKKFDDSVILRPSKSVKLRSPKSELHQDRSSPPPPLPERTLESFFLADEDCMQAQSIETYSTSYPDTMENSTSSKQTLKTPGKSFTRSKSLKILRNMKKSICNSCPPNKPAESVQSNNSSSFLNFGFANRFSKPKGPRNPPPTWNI

[13] = target: Ras and Rab interactor 1/Tyrosine-protein kinase ABL1 (Homo sapiens, UniProt P00519+Q13671); format: functional;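 further: biochemical TR-FRET dose-response test measuring inhibition of binding between Rin1 and Abl proteins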
Chain of Ras and Rab interactor 1/Tyrosine-protein kinase ABL1 (P00519 whole entry): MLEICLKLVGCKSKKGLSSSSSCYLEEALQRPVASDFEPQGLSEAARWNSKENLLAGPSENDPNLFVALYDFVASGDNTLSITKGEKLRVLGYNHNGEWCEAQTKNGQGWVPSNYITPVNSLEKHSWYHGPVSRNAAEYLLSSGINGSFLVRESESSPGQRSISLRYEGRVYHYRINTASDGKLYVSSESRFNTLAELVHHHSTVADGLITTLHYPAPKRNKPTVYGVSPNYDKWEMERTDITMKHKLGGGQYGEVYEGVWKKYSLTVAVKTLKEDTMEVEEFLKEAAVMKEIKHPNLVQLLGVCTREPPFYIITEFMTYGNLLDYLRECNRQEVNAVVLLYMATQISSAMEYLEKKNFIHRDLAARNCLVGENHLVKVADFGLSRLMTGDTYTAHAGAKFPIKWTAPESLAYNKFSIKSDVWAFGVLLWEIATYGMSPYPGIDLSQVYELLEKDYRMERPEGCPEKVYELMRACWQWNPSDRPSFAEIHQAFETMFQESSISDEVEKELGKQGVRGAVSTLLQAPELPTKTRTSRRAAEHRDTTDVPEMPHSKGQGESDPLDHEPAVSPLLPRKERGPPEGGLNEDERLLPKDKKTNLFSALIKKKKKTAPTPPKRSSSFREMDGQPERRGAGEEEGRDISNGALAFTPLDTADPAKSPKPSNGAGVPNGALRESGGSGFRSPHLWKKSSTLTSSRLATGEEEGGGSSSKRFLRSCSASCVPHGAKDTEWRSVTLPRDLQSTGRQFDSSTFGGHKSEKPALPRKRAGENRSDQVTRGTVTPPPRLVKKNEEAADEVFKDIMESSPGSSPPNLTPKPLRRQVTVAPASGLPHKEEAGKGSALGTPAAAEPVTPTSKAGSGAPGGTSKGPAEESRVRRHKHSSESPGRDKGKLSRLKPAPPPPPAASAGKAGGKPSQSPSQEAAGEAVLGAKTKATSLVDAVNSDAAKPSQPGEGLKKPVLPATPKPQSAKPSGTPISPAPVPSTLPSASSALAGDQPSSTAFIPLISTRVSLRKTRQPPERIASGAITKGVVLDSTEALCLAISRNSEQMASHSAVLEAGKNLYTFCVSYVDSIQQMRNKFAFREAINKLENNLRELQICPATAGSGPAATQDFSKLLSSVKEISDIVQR
Chain of Ras and Rab interactor 1/Tyrosine-protein kinase ABL1 (Q13671 whole entry): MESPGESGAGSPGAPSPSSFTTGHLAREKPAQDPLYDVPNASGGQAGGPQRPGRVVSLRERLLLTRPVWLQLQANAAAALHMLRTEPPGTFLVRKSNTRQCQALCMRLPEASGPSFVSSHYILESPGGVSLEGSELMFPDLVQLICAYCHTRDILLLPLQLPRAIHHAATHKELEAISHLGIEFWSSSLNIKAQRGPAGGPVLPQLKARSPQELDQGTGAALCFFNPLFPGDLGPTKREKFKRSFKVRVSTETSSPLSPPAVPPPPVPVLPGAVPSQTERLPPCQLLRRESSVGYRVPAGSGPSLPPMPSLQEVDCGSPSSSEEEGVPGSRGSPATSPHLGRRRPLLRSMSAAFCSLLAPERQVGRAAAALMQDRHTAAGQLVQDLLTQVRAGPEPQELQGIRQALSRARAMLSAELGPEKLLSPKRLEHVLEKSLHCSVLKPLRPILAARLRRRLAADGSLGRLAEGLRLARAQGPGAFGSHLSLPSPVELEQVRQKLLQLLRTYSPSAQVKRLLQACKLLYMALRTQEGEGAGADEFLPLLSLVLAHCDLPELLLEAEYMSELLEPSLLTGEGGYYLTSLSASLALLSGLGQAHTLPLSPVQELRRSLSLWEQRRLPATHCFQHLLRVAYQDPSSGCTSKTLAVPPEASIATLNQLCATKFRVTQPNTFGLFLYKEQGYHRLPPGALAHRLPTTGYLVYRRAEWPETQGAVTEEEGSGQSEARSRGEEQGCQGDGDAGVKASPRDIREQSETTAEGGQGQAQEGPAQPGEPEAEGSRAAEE

[14] = NIH-3T3 fibroblast cytotoxicity, dose response, cytotoxicity control, cell-based, fluorescence, Alamar Blue, secondary assay (AID 2327); format: functional;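 further: NIH-3T3 mouse fibroblasts cultured with fluconazole at 8 µg/mL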
[15] = fluconazole-exposed Candida albicans growth modulators – fluorescence, retest, confirmation (AID 2467); format: functional, cell-based
[16] = target: T5, Carboxy-terminal domain RNA polymerase II polypeptide A small phosphatase 1 (Homo sapiens, UniProt Q9GZU7); assay: CTDSP1 inhibitors, concentration-response, biochemical, absorbance readout, ultra-high-throughput screen actives (AID 540297); format: functional
T5 sequence (Q9GZU7 whole entry): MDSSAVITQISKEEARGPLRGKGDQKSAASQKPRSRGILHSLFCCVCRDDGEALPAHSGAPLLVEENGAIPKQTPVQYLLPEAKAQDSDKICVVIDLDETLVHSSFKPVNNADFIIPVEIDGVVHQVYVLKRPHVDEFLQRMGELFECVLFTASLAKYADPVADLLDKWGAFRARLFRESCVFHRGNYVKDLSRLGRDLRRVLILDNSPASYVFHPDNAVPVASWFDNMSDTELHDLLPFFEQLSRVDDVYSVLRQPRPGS

[17] = target: 26S proteasome non-ATPase regulatory subunit 14 (Homo sapiens, UniProt O00487); assay: inhibition of proteasome subunit RPN11 – biochemical, fluorescence polarization, uHTS hits, confirmation (AID 602368); format: functional
[18] = target: 72 kDa type IV collagenase (Homo sapiens, UniProt P08253); assay: Dose Response validation of uHTS RPN11 inhibitor hits using a MMP-2 Fluorescence assay.; format: functional
Chain of 72 kDa type IV collagenase (P08253 whole entry): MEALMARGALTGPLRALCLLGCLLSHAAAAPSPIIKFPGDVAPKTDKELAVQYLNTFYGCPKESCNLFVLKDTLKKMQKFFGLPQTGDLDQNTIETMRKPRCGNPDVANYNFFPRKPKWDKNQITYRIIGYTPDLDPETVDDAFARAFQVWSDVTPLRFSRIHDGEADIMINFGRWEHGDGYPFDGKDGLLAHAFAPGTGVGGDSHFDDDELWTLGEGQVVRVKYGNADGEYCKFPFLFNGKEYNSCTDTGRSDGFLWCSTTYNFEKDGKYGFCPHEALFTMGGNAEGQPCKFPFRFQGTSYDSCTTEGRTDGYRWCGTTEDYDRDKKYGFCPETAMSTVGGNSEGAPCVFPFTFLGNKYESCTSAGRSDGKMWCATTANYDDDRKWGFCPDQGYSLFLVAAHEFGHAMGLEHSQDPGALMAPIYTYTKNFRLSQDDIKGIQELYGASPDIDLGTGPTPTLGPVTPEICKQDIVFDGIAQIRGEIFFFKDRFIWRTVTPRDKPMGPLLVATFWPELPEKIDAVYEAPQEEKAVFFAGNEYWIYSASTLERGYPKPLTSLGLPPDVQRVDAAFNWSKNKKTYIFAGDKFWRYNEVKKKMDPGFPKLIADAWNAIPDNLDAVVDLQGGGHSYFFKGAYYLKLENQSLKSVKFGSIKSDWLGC

Prothrombin = Prothrombin (Bos taurus, UniProt P00735); assay: thrombin protease inhibitors – biochemical, fluorescence polarization, uHTS hits, dose response (AID 602369); format: functional
[19] = target: T6, Rac GTPase-activating protein 1 (Homo sapiens, UniProt Q9H0H5); assay: blockers of MgcRacGAP-driven Rac1 GTP hydrolysis – biochemical, ADP Hunter fluorescence, primary and confirmatory, confirmation (AID 624330); format: functional
T6 sequence (Q9H0H5 whole entry): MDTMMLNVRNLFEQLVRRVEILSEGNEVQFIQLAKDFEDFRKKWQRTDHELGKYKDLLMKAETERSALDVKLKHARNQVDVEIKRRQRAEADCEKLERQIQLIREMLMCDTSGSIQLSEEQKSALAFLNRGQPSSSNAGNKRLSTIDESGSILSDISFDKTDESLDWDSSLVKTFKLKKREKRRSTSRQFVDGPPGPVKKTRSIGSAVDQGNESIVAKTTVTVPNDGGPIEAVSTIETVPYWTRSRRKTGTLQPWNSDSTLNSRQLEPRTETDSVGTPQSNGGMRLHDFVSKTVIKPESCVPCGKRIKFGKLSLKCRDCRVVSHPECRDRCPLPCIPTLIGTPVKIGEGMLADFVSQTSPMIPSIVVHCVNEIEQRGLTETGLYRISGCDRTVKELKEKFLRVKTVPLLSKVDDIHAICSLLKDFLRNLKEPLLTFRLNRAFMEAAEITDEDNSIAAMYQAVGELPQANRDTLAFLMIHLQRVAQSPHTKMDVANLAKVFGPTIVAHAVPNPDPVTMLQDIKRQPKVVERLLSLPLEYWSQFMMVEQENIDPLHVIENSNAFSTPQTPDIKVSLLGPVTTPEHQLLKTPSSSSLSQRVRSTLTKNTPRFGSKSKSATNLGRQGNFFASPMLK

SMILES: Cc1ccccc1N1C(=O)NC(=O)/C(=C\NNC(=O)c2ccncc2)C1=O
- AC50 [1]: 114 µM (active)

SMILES: CCCN(C(=O)Cc1n[nH]c(N)n1)C1(C(=O)Nc2ccccc2C)CCCCC1
- AC50 (Cytochrome P450 2C19): 20 µM (inconclusive)
- AC50 [2]: 90.8 µM (active)
- AC50 (Cytochrome P450 2D6): 17.8 µM (inconclusive)
- AC50 (Cytochrome P450 2C9): 0.224 µM (inconclusive)

SMILES: C/C(CC(=O)Nc1ccc(F)cc1)=N\NC(=O)c1ccccn1
- AC50 [2]: 89.2 µM (active)

SMILES: N#Cc1cc2c(nc1SCC(=O)Nc1nccs1)CCCCC2
- EC50 [3]: > 100 µM (not active)
- EC50 (HT-1080): > 50 µM (not active)
- IC50 (Melanocortin receptor 4): 11.8 µM (inactive)
- IC50 [4]: 14.9 µM (inactive)

SMILES: CC(C)C1C(c2ccccc2)N(C)C(c2ccccc2)CC1(O)c1ccccc1 (configuration not stated)
- CC50 [5]: 25.3 µM (active)
- EC50 [6]: 1.55 µM (active)
- EC50 (Streptokinase A): 2.22 µM (active)
- EC50 [7]: 2.43 µM (active)
- EC50 [8]: > 60 µM (not active)
- EC50 (Streptococcus): 7.03 µM (active)
- AC50 [9]: 1.9 µM (active)
- IC50 (Melanocortin receptor 4): > 64.6 µM (inactive)
- IC50 [4]: > 64.6 µM (inactive)

SMILES: CC(Nc1nc(N2CCNCC2)nc2ccccc12)c1ccccc1 (configuration not stated)
- EC50 [10]: 5.31 µM (active)
- IC50 [11]: 13.8 µM (active)
- IC50 [12]: 37.9 µM (inactive)

SMILES: CN(CCc1ccccc1)C(=O)c1ccc(NC(=O)Cc2ccc(NC(=O)C3CCN(C(=O)C4CCC4)CC3)cc2)cc1
- IC50 [13]: 16.9 µM (inactive)

SMILES: COc1ccc(O)c(/C=N/NC(=O)c2c(C)nnn2-c2nonc2N)c1
- EC50 [14]: > 150 µM (inconclusive)
- EC50 [15]: > 38 µM (not active)
- IC50 [16]: 6.12 µM (active)
- IC50 [17]: 13.1 µM (active)
- IC50 [18]: > 100 µM (inactive)
- IC50 (Prothrombin): 54.6 µM (active)
- IC50 [19]: 79.7 µM (active)

SMILES: Cc1cc(NC(=O)CC(C)C)c(=O)n(Cc2ccccc2F)c1
- AC50 [1]: 130 µM (active)

SMILES: CCCCSCc1[nH]c(O)nc1C(=O)CCCCC(=O)OCC
- IC50 [13]: 4.76 µM (active)
